A word on the IC50: it is the midpoint of a concentration-inhibition curve.

This note sets out measurements from patent US10736908B2, “Antiviral aryl-amide phosphodiamide compounds” (Merck Sharp & Dohme Corp., priority 2016, dated 2020).

Structures are written as SMILES. Like-named read-outs stand apart in the source and are kept apart here.

This experiment has as its system HIV-1 (H9/IIIB strain). In words: Multiple round HIV-1 infection assay (Viking assay) in MT4-GFP cells. The conditions noted are these: HIV-1 replication in MT4-GFP cells. It counts as cell-based. On the procedure: Assessing Antiviral Potency in a Multiple Round HIV-1 Infection Assay (Viking Assay)
The antiviral activity of the tenofovir prodrugs of the Examples herein was assessed in an assay that measures the rate of replication of HIV in cell culture, termed the Viking assay (VIral KINetics in Green cells) and performed as follows. HIV-1 replication was monitored using MT4-gag-GFP clone D3 (hereafter designated MT4-GFP), which are MT-4 cells modified to harbor a GFP reporter gene, the expression of which is dependent on the HIV-1 expressed proteins tat and rev. Productive infection of an MT4-GFP cell with HIV-1 results in GFP expression approximately 24 h post-infection. MT4-GFP cells were maintained at 37° C./5% CO2/90% relative humidity in RPMI 1640 supplemented with 10% fetal bovine serum, 100 U/ml penicillin/streptomycin, and 400 μg/ml G418 to maintain the reporter gene. For infections, MT4-GFP cells were placed in the same medium lacking G418 and infected overnight with HIV-1 (H9/IIIB strain) virus at an approximate multiplicity of infection of 0.01 in the same incubation conditions. […] Compound plates were prepared by dispensing compounds dissolved in DMSO into wells of 384 well poly-D-lysine-coated plates (0.2 μl/well) using an ECHO acoustic dispenser. Each compound was tested in a 10-point serial 3-fold dilution (typical final concentrations: 8.4 μM-0.42 nM). Controls included no inhibitor (DMSO only) and a combination of three antiviral agents (efavirenz, indinavir, an in-house integrase strand transfer inhibitor at final concentrations of 4 μM each). Cells were added (50 μL/well) to compound plates and the infected cells were maintained at 37° C./5% CO2/90% relative humidity.
Infected cells were quantified at two time points, ˜48 h and ˜72 h post-infection, by counting the number of green cells in each well using an Acumen eX3 scanner. The increase in the number of green cells over ˜24 h period gives the reproductive ratio, R0, which is typically 5-15 and has been shown experimentally to be in logarithmic phase (data not shown). Inhibition of R0 is calculated for each well, and IC50s determined by non-linear 4-parameter curve fitting.

[1] abbreviates: Human immunodeficiency virus 1, IIIB, 50% NHS (normal human serum), read-out: Viking, IC50 (50% NHS).
Setting [2] is: Human immunodeficiency virus 1, IIIB, head prints 100% NHS (normal human serum), read-out: Viking, IC50 (100% NHS).
[3] abbreviates: 50% NHS (normal human serum), read-out: Viking, IC50 (50% NHS).
[4] abbreviates: head prints 100% NHS (normal human serum), read-out: Viking, IC50 (100% NHS).

`CCOCCOC(=O)C(C)(C)NP(=O)(CO[C@H](C)Cn1cnc2c(N)ncnc21)NC(=O)c1ccccc1Cl` (single isomer, unassigned) [Example 12A]: the IC50 reads like this: under setting [1], 90.6 nM; under setting [2], 30.9 nM.

`CC(C)OC(=O)C(C)(C)NP(=O)(CO[C@H](C)Cn1cnc2c(N)ncnc21)NC(=O)c1ccncn1` (single isomer, unassigned) [Example 13A]: the IC50 runs as follows: under setting [3], 2130 nM; under setting [4], 854 nM.

On to `CC(C)COC(=O)C(C)(C)NP(=O)(CO[C@H](C)Cn1cnc2c(N)ncnc21)NC(=O)c1ccc(Cl)cc1` (single isomer, unassigned) [Example 5B], for which the IC50 under setting [3] is 24.4 nM and the IC50 under setting [4] came out at 1.9 nM.

For the molecule `CCCOC(=O)C(C)(C)NP(=O)(CO[C@H](C)Cn1cnc2c(N)ncnc21)NC(=O)c1ccc(Cl)cc1` (single isomer, unassigned) [Example 4A], the IC50 is, setting by setting: under setting [3], 57.9 nM; under setting [4], 12 nM.

Consider `CC(C)OC(=O)C(C)(C)NP(=O)(CO[C@H](C)Cn1cnc2c(N)ncnc21)NC(=O)c1ccc(F)cc1` (single isomer, unassigned) [Example 10A], for which the IC50 under setting [3] came out at 264 nM and the IC50 under setting [4] came out at 129 nM.

Consider `CC(C)OC(=O)C(C)(C)NP(=O)(CO[C@H](C)Cn1cnc2c(N)ncnc21)NC(=O)c1ccncn1` (single isomer, unassigned) [Example 13B], for which the half-inhibitory concentration (IC50) stood at 480 nM under setting [3] and 164 nM under setting [4].

With `CC(C)COC(=O)C(C)(C)NP(=O)(CO[C@H](C)Cn1cnc2c(N)ncnc21)NC(=O)c1ccc(Cl)cc1` (single isomer, unassigned) [Example 5A], the IC50 turned out to be 79.8 nM under setting [3] and 12.3 nM under setting [4].

`CCOC(=O)C(C)(C)NP(=O)(CO[C@H](C)Cn1cnc2c(N)ncnc21)NC(=O)c1ccc(C(C)(C)C)cc1` (single isomer, unassigned) [Example 22B]: the IC50 runs as follows: under setting [3], 15.7 nM; under setting [4], 5.8 nM.

Regarding `CCOCCOC(=O)C(C)(C)NP(=O)(CO[C@H](C)Cn1cnc2c(N)ncnc21)NC(=O)c1ccc(Cl)cc1` (single isomer, unassigned) [Example 8B], the IC50 under setting [3] came out at 62.2 nM and the IC50 under setting [4] came out at 41.1 nM.

With `CCCOC(=O)C(C)(C)NP(=O)(CO[C@H](C)Cn1cnc2c(N)ncnc21)NC(=S)c1ccc(Cl)cc1` (stereo partly drawn) [Example 19, propyl 2-((((((R)-1-(6-amino-9H-purin-9-yl)propan-2-yl)oxy)methyl)(4-chlorophenylthioamido)phosphoryl)amino)-2-methylpropanoate], the IC50 under setting [1] worked out at 347 nM and the IC50 under setting [2] is 32.1 nM.

Consider `CCOCCOC(=O)C(C)(C)NP(=O)(CO[C@H](C)Cn1cnc2c(N)ncnc21)NC(=O)c1ccccc1Cl` (single isomer, unassigned) [Example 12B], for which the IC50 by setting is: under setting [3], 83.4 nM; under setting [4], 26.7 nM.

Turning to `CCCOC(=O)C(C)(C)NP(=O)(CO[C@H](C)Cn1cnc2c(N)ncnc21)NC(=O)c1ccc(OC)cc1` (single isomer, unassigned) [Example 2A], the IC50 by setting is: under setting [1], 93.2 nM; under setting [2], 32.4 nM.

As for `CCCOC(=O)C(C)(C)NP(=O)(CO[C@H](C)Cn1cnc2c(N)ncnc21)NC(=O)c1ccccc1Cl` (single isomer, unassigned) [Example 21B], the IC50 under setting [1] was found to be 229 nM and the IC50 under setting [2] was determined as 33.6 nM.

With `C[C@H](Cn1cnc2c(N)ncnc21)OCP(=O)(NC(=O)c1ccc(Cl)cc1)NC(C)(C)C(=O)OC1CCC1` (single isomer, unassigned) [Example 6A], the IC50 reads like this: under setting [3], 36.9 nM; under setting [4], 11.1 nM.

Turning to `C[C@H](Cn1cnc2c(N)ncnc21)OCP(=O)(NC(=O)c1ccc(Cl)cc1)NC(C)(C)C(=O)OC1CCOCC1` (single isomer, unassigned) [Example 9A], the half-maximal inhibitory concentration (IC50) under setting [3] was determined as 1440 nM and the IC50 under setting [4] amounted to 404 nM.

With `CCCCCOC(=O)C(C)(C)NP(=O)(CO[C@H](C)Cn1cnc2c(N)ncnc21)NC(=O)c1ccc(F)cc1` (single isomer, unassigned) [Example 11B], the IC50 runs as follows: under setting [3], 30.8 nM; under setting [4], 5.7 nM.

On to `CC(C)OC(=O)C(C)(C)NP(=O)(CO[C@H](C)Cn1cnc2c(N)ncnc21)NC(=O)c1cnccn1` (single isomer, unassigned) [Example 14B], for which the IC50 amounted to 314 nM under setting [3] and 112 nM under setting [4].

`CCCOC(=O)C(C)(C)NP(=O)(CO[C@H](C)Cn1cnc2c(N)ncnc21)NC(=O)c1ccc(OC)cc1` (stereo partly drawn) [Example 2B, propyl 2-(((R)—((((R)-1-(6-amino-9H-purin-9-yl)propan-2-yl)oxy)methyl)(4-methoxy-benzamido)phosphoryl)amino)-2-methylpropanoate and propyl 2-(((S)—((((R)-1-(6-amino-9H-purin-9-yl)propan-2-yl)oxy)methyl(4-methoxybenzamido)phosphoryl)amino)-2-methylpropanoate]: the IC50 is, setting by setting: under setting [1], 69.8 nM; under setting [2], 27.5 nM.

For `COc1ccc(C(=O)NP(=O)(CO[C@H](C)Cn2cnc3c(N)ncnc32)NC(C)(C)C(=O)OC(C)C)cc1` (single isomer, unassigned) [Example 17B], the IC50 was found to be 390 nM under setting [3] and 157 nM under setting [4].

As for `CCCCCOC(=O)C(C)(C)NP(=O)(CO[C@H](C)Cn1cnc2c(N)ncnc21)NC(=O)c1ccccc1OC` (single isomer, unassigned) [Example 16B], the IC50 reads like this: under setting [3], 139 nM; under setting [4], 15.5 nM.

Regarding `COc1ccc(C(=O)NP(=O)(CO[C@H](C)Cn2cnc3c(N)ncnc32)NC(C)(C)C(=O)OC(C)C)cc1` (single isomer, unassigned) [Example 17A], the 50% inhibitory concentration (IC50) under setting [3] came to 54.3 nM and the concentration for half-maximal inhibition (IC50) under setting [4] was 18.3 nM.

On to `CCOCCOC(=O)C(C)(C)NP(=O)(CO[C@H](C)Cn1cnc2c(N)ncnc21)NC(=O)c1ccc(Cl)cc1` (single isomer, unassigned) [Example 8A], for which the IC50 by setting is: under setting [3], 133 nM; under setting [2], 63.9 nM.

Turning to `C[C@H](Cn1cnc2c(N)ncnc21)OCP(=O)(NC(=O)c1ccc(Cl)cc1)NC(C)(C)C(=O)OC1CCCC1` (single isomer, unassigned) [Example 7A], the IC50 by setting is: under setting [3], 31.7 nM; under setting [4], 8.4 nM.

On to `CCOC(=O)C(C)(C)NP(=O)(CO[C@H](C)Cn1cnc2c(N)ncnc21)NC(=O)c1ccc(C(C)(C)C)cc1` (single isomer, unassigned) [Example 22A], for which the IC50 under setting [3] is 48.1 nM and the half-maximal inhibitory concentration (IC50) under setting [4] was 15.1 nM.

`C[C@H](Cn1cnc2c(N)ncnc21)OCP(=O)(NC(=O)c1ccc(Cl)cc1)NC(C)(C)C(=O)OC1CCCC1` (single isomer, unassigned) [Example 7B]: the IC50 under setting [3] amounted to 13.5 nM and the IC50 under setting [4] was found to be 1.92 nM.

Regarding `CC(C)OC(=O)C(C)(C)NP(=O)(CO[C@H](C)Cn1cnc2c(N)ncnc21)NC(=S)c1ccc(Cl)cc1` (stereo partly drawn) [Example 20, isopropyl 2-((((((R)-1-(6-amino-9H-purin-9-yl)propan-2-yl)oxy)methyl)(4-chlorophenylthioamido)phosphoryl)amino)-2-methylpropanoate], the IC50 reads like this: under setting [1], 494 nM; under setting [2], 118 nM.

For the molecule `CCCCCOC(=O)C(C)(C)NP(=O)(CO[C@H](C)Cn1cnc2c(N)ncnc21)NC(=O)c1ccccc1OC` (single isomer, unassigned) [Example 16A], the IC50 reads like this: under setting [1], 153 nM; under setting [2], 13.3 nM.

Take `CC(C)OC(=O)C(C)(C)NP(=O)(CO[C@H](C)Cn1cnc2c(N)ncnc21)NC(=O)c1ccc(Cl)cc1` (mixture of isomers) [Example 1A, isopropyl 2-(((R)—((((R)-1-(6-amino-9H-purin-9-yl)propan-2-yl)oxy)methyl)(4-chlorobenzamido)phosphoryl)amino)-2-methylpropanoate and isopropyl 2-(((S)—((((R)-1-(6-amino-9H-purin-9-yl)propan-2-yl)oxy)methyl)(4-chlorobenzamido)phosphoryl)amino)-2-methylpropanoate]: the IC50 was found to be 286 nM under setting [1] and 82.4 nM under setting [2].

In the case of `CCCCCOC(=O)C(C)(C)NP(=O)(CO[C@H](C)Cn1cnc2c(N)ncnc21)NC(=O)c1cccs1` (single isomer, unassigned) [Example 15B], the 50% inhibitory concentration (IC50) under setting [3] was found to be 29.8 nM and the IC50 under setting [4] was 8.1 nM.

Regarding `CCCCCOC(=O)C(C)(C)NP(=O)(CO[C@H](C)Cn1cnc2c(N)ncnc21)NC(=O)c1ccc(C)cc1` (single isomer, unassigned) [Example 18A], the IC50 runs as follows: under setting [3], 35.4 nM; under setting [4], 9 nM.
